Measurements taken from patent US10765114B2, “4-amino-6-(pyridyl and 2-substitutedphenyl)-picolinates and 6-amino-2-(pyridyl and 2-substitutedphenyl)-pyrimidine-4-carboxylates and their use as herbicides” (Dow AgroSciences LLC, priority 2013, dated 2020).

Key:
Experiment in all cases: Post-Emergent Test III (Wheat and Barley)
POLCO (wild buckwheat) = type: in vivo, Polygonum convolvulus; details: for Visual Growth Reduction (%) 21 Days After Application, POLCO: postemergence
In short: (§1)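 Plants grown in greenhouse (14 h photoperiod, ~18/17 °C day/night) to second or third true leaf stage were sprayed post-emergence at 187 L/ha in acetone/DMSO-based spray solution with crop oil and surfactant, top rate plus ½× to 1/16× dilutions. Visual injury (0–100%) versus untreated plants was scored after 21 days.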

KCHSC (kochia) = type: in vivo, Kochia scoparia
In short: as §1

APESV (windgrass) = type: in vivo, Apera spica-venti
In short: as §1

TRZSS = type: in vivo
In short: as §1

HORSS = type: in vivo
In short: as §1

BRSSS = type: in vivo; details: for Visual Growth Reduction (%) 21 Days After Application, BRSSS: postemergence
In short: as §1

[1] = tested on: LAMPU (purple deadnettle); type: in vivo, Lamium purpureum; details: for Visual Growth Reduction (%) 21 Days After Application, LAMPU: postemergence
In short: as §1

[2] = effective dose for growth reduction of 50 percent, probit analysis
[3] = effective dose for growth reduction of 80 percent, probit analysis
[4] = effective dose for growth reduction of 90 percent, probit analysis
[5] = effective dose for growth reduction of 10 percent, probit analysis
[6] = effective dose for growth reduction of 20 percent, probit analysis

## COC(=O)c1nc(-c2ccc(Cl)c(F)c2C)cc(N)c1Cl [Compound 73]
POLCO (wild buckwheat); 35 g ai/ha
  Visual Growth Reduction (%) 21 Days After Application, POLCO: A (95-100)
POLCO (wild buckwheat); 70 g ai/ha
  Visual Growth Reduction (%) 21 Days After Application, POLCO: A (95-100)
POLCO (wild buckwheat); 140 g ai/ha
  Visual Growth Reduction (%) 21 Days After Application, POLCO: A (95-100)
POLCO (wild buckwheat); [2]
  GR50, POLCO: 7 g ai/ha
POLCO (wild buckwheat); [3]
  GR80, POLCO: 10 g ai/ha
POLCO (wild buckwheat); [4]
  GR90, POLCO: 12 g ai/ha
KCHSC (kochia); Bassia scoparia, post-emergence, 504 h, 35 g ai/ha, postemergence, read-out: Visual Growth Reduction (%) 21 Days After Application, KCHSC
  pest or weed control at 35 g/ha: 85 to 94%
KCHSC (kochia); Bassia scoparia, post-emergence, 504 h, 70 g ai/ha, postemergence, read-out: Visual Growth Reduction (%) 21 Days After Application, KCHSC
  pest or weed control at 70 g/ha: 95 to 100%
KCHSC (kochia); Bassia scoparia, post-emergence, 504 h, 140 g ai/ha, postemergence, read-out: Visual Growth Reduction (%) 21 Days After Application, KCHSC
  pest or weed control at 140 g/ha: 95 to 100%
KCHSC (kochia); [2]
  GR50, KCHSC: 8 g ai/ha
KCHSC (kochia); [3]
  GR80, KCHSC: 21 g ai/ha
KCHSC (kochia); [4]
  GR90, KCHSC: 35 g ai/ha
APESV (windgrass); Apera spica-venti, post-emergence, 504 h, 35 g ai/ha, postemergence, read-out: Visual Growth Reduction (%) 21 Days After Application, APESV
  pest or weed control at 35 g/ha: 45 to 59%
APESV (windgrass); Apera spica-venti, post-emergence, 504 h, 70 g ai/ha, postemergence, read-out: Visual Growth Reduction (%) 21 Days After Application, APESV
  pest or weed control at 70 g/ha: 60 to 74%
APESV (windgrass); Apera spica-venti, post-emergence, 504 h, 140 g ai/ha, postemergence, read-out: Visual Growth Reduction (%) 21 Days After Application, APESV
  pest or weed control at 140 g/ha: 85 to 94%
APESV (windgrass); [2]
  GR50, APESV: 32 g ai/ha
APESV (windgrass); [3]
  GR80, APESV: 90 g ai/ha
APESV (windgrass); [4]
  GR90, APESV: >140 g ai/ha
TRZSS; Triticum aestivum, post-emergence, 504 h, 35 g ai/ha, postemergence, read-out: Visual Growth Reduction (%) 21 Days After Application, TRZSS
  pest or weed control at 35 g/ha: 60 to 74%
TRZSS; Triticum aestivum, post-emergence, 504 h, 70 g ai/ha, postemergence, read-out: Visual Growth Reduction (%) 21 Days After Application, TRZSS
  pest or weed control at 70 g/ha: 60 to 74%
TRZSS; Triticum aestivum, post-emergence, 504 h, 140 g ai/ha, postemergence, read-out: Visual Growth Reduction (%) 21 Days After Application, TRZSS
  pest or weed control at 140 g/ha: 75 to 84%
TRZSS; [5]
  GR10, TRZSS: 3 g ai/ha
TRZSS; [6]
  GR20, TRZSS: 6 g ai/ha
HORSS; Hordeum vulgare, post-emergence, 504 h, 35 g ai/ha, postemergence, read-out: Visual Growth Reduction (%) 21 Days After Application, HORSS
  pest or weed control at 35 g/ha: 60 to 74%
HORSS; Hordeum vulgare, post-emergence, 504 h, 70 g ai/ha, postemergence, read-out: Visual Growth Reduction (%) 21 Days After Application, HORSS
  pest or weed control at 70 g/ha: 60 to 74%
HORSS; Hordeum vulgare, post-emergence, 504 h, 140 g ai/ha, postemergence, read-out: Visual Growth Reduction (%) 21 Days After Application, HORSS
  pest or weed control at 140 g/ha: 75 to 84%
HORSS; [5]
  GR10, HORSS: 2 g ai/ha
HORSS; [6]
  GR20, HORSS: 5 g ai/ha
BRSSS; 35 g ai/ha
  Visual Growth Reduction (%) 21 Days After Application, BRSSS: C (75-84)
BRSSS; 70 g ai/ha
  Visual Growth Reduction (%) 21 Days After Application, BRSSS: B (85-94)
BRSSS; 140 g ai/ha
  Visual Growth Reduction (%) 21 Days After Application, BRSSS: A (95-100)
BRSSS; [2]
  GR50, BRSSS: 5 g ai/ha
BRSSS; [3]
  GR80, BRSSS: 29 g ai/ha
BRSSS; [4]
  GR90, BRSSS: 73 g ai/ha
[1]; 35 g ai/ha
  Visual Growth Reduction (%) 21 Days After Application, LAMPU: A (95-100)
[1]; 70 g ai/ha
  Visual Growth Reduction (%) 21 Days After Application, LAMPU: A (95-100)
[1]; 140 g ai/ha
  Visual Growth Reduction (%) 21 Days After Application, LAMPU: A (95-100)
[1]; [2]
  GR50, LAMPU: <17.5 g ai/ha
[1]; [3]
  GR80, LAMPU: <17.5 g ai/ha
[1]; [4]
  GR90, LAMPU: <17.5 g ai/ha
